{
  "source": "patent US10786483B2",
  "about": "“Tumescent contravenom drug delivery” (HK Pharma, priority 2016, dated 2020)",
  "key": {"Bee Venom sPLA2": {"biological_target": "Bee Venom sPLA2 (Apis mellifera, UniProt P00630)", "sequence (P00630 34-167 limits assumed)": "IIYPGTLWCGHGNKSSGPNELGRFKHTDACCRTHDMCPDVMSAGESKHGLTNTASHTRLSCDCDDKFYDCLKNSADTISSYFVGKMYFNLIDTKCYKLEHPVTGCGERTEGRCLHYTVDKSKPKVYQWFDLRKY", "conditions": "cited from earlier work"}, "platelet aggregation": {"system": "platelet aggregation", "conditions": "cited from earlier work"}, "[1]": {"test": "precipitation on mixing acyclovir, lidocaine and epinephrine", "assay_type": "physicochemical", "description": "Some drugs are considered incompatible because of precipitation when mixed together in the same solution. […] This tumescent solution can be safely and painlessly injected subcutaneously into a human patient. This is surprising and unexpected because the FDA approved package insert labeling for acyclovir for IV infusion states explicitly the subcutaneous delivery must be avoided. Similar increased solubility and drug-drug compatibility of mixtures of multiple contravenom drugs can be expected with sufficient tumescent dilution. This is a unique and unexpected advantage of tumescent contravenom delivery."}, "sPLA2 activity in serum [2]": {"system": "sPLA2 activity in serum", "conditions": "guinea pig serum; read-out: IC50, inhibitory effect on sPLA2 activity in serum; cited from earlier work"}, "snake venoms": {"system": "snake venoms", "conditions": "mice; cited from earlier work"}, "sPLA2 activity in serum [3]": {"system": "sPLA2 activity in serum", "conditions": "human serum; read-out: IC50, inhibitory effect on sPLA2 activity in serum; cited from earlier work"}, "sPLA2 activity in serum [4]": {"system": "sPLA2 activity in serum", "conditions": "rat serum; read-out: IC50, inhibitory effect on sPLA2 activity in serum; cited from earlier work"}, "sPLA2 activity in serum [5]": {"system": "sPLA2 activity in serum", "conditions": "rabbit serum; read-out: IC50, inhibitory effect on sPLA2 activity in serum; cited from earlier work"}, "[6]": {"conditions": "41 procedures, 14 subjects, 19.2 to 52 mg/kg, over the 24-hour study period", "protocol": "Volunteers participated in 1 to 2 infiltration studies without liposuction and then one study with tumescent liposuction totally by local anesthesia.\nIndividual subjects served as their own controls. Large volume (≥500 mL) tumescent infiltration was accomplished using a peristaltic tumescent infiltration pump (HKSurgical.com, San Clemente, Calif.).\nSerum samples were obtained from a peripheral vein using an indwelling 20-gauge IV catheter by a 2-syringe sampling technique. The first syringe contained 2 mL saline to flush the IV catheter and then remove and discard 2 mL of blood.\nFor each subject, the initial infiltration procedures were done without subsequent liposuction, and the final tumescent infiltration was followed by liposuction after allowing at least 1 hour of detumescence for gradual dispersion of subcutaneous tumescent fluid. Tumescent infiltration procedures were separated by at least 1 week. The liposuction aspirate was collected in clear plastic volumetric canisters. After allowing at least 1 hour for gravitational separation of the lipid and aqueous aspirate, the resulting supernatant fat, infranatant blood-tinged tumescent anesthetic solution, and the total aspirate volume were recorded.\nAUC∞, Cmax, and Tmax without and with liposuction were compared by the paired t test."}, "[7]": {"conditions": "cited from earlier work"}, "[8]": {"test": "tolerance interval analysis, probability that Cmax >=6 μg/mL", "parameters": "species or system human", "conditions": "99% confidence", "procedure": "Tolerance intervals were calculated at a 99% level of confidence."}, "[9]": {"description": "Heart rates, before, during, and after tumescent infiltration and immediately after liposuction were compared."}, "[10]": {"system": "lymphatic smooth muscle contraction", "conditions": "rats, applied topically; cited from earlier work"}, "[11]": {"conditions": "with liposuction, epinephrine dose 1.6 to 4.3 mg"}, "[12]": {"conditions": "without liposuction, epinephrine dose 1.2 to 4.3 mg"}},
  "note": "Where two headings read alike, the source gives them in different places.",
  "data": [
    {"smiles": "CCc1c(C(=O)C(N)=O)c2c(OCC(=O)OC)cccc2n1Cc1ccccc1", "note": "[Me-Varespladib, methyl varespladib]", "values": [
      {"measurement": "IC50, sPLA2 inhibition", "setting": "Bee Venom sPLA2", "value": "*Indeterminate"}
    ]},
    {"smiles": "CCCCN1CCCCC1C(=O)Nc1c(C)cccc1C", "note": "(centres unmarked) [bupivacaine]", "values": [
      {"measurement": "platelet aggregation induced by ADP", "setting": "platelet aggregation", "value": "inhibit"}
    ]},
    {"smiles": "Nc1nc2c(ncn2COCCO)c(=O)[nH]1", "note": "[acyclovir]", "values": [
      {"measurement": "precipitation on mixing", "setting": "[1]; 1 gm acyclovir (1 g/20 ml) with 1 gram lidocaine (1 gram/100 ml) with epinephrine (1 mg/L), 120 ml mixture", "value": "immediate precipitation"},
      {"measurement": "precipitation on mixing", "setting": "[1]; 1 gm acyclovir and 1 gm lidocaine in 100 ml, 250 ml and 500 ml of saline", "value": "precipitation"},
      {"measurement": "precipitation on mixing", "setting": "[1]; 1 gm acyclovir, 1 gm lidocaine and 1 mg epinephrine in 1000 ml of saline", "value": "no precipitation"}
    ]},
    {"smiles": "CCc1c(C(=O)C(N)=O)c2c(OCC(=O)O)cccc2n1Cc1ccccc1", "note": "[Varespladib]", "values": [
      {"measurement": "IC50", "setting": "sPLA2 activity in serum [2]", "value": 3.2, "unit": "nM"},
      {"measurement": "neutralizing a wide variety of snake venoms", "setting": "snake venoms", "value": "effective"},
      {"measurement": "IC50", "setting": "sPLA2 activity in serum [3]", "value": 6.2, "unit": "nM"},
      {"measurement": "IC50", "setting": "sPLA2 activity in serum [4]", "value": 8.1, "unit": "nM"},
      {"measurement": "IC50", "setting": "sPLA2 activity in serum [5]", "value": 5, "unit": "nM"}
    ]},
    {"smiles": "CCN(CC)CC(=O)Nc1c(C)cccc1C", "note": "[lidocaine]", "values": [
      {"measurement": "measured serum lidocaine concentrations, all", "setting": "[6]", "value": "< 6", "unit": "µg/mL"},
      {"measurement": "recommended maximal dosage, FDA-approved package insert labeling", "setting": "[7]; lidocaine with epinephrine, infiltration local anesthesia", "value": 7, "unit": "mg/kg"},
      {"measurement": "maximal safe dosage recommended by American Society for Dermatologic Surgery guidelines", "setting": "[7]; liposuction totally by local anesthesia", "value": 55, "unit": "mg/kg"},
      {"measurement": "risk of lidocaine serum concentration >6 μg/mL", "setting": "[8]; No liposuction, 40 mg/kg", "value": "1/750"},
      {"measurement": "risk of lidocaine serum concentration >6 μg/mL", "setting": "[8]; No liposuction, 50 mg/kg", "value": "1/15"},
      {"measurement": "risk of lidocaine serum concentration >6 μg/mL", "setting": "[8]; No liposuction, 55 mg/kg", "value": "1/4"},
      {"measurement": "risk of lidocaine serum concentration >6 μg/mL", "setting": "[8]; No liposuction, […] mg/kg", "value": "1/80"},
      {"measurement": "risk of lidocaine serum concentration >6 μg/mL", "setting": "[8]; With liposuction, 50 mg/kg", "value": "1/500"},
      {"measurement": "risk of lidocaine serum concentration >6 μg/mL", "setting": "[8]; With liposuction, 55 mg/kg", "value": "1/100"},
      {"measurement": "lidocaine-associated adverse event", "setting": "[9]; one subject, body mass index 20, 45 mg/kg without liposuction, approximately 12 hours after infiltration", "value": "transient nausea"},
      {"measurement": "lidocaine concentrations that consistently inhibit in-vitro platelet aggregation", "setting": "platelet aggregation; aggregation induced by ADP, epinephrine and collagen", "value": "≥ 0.5", "unit": "mg/mL"},
      {"measurement": "effect on platelet aggregation", "setting": "platelet aggregation; at safe systemic concentrations (e.g. ≤6 micrograms/ml)", "value": "no effect"},
      {"measurement": "platelet aggregation induced by ADP", "setting": "platelet aggregation", "value": "inhibit"},
      {"measurement": "lymph transit time", "setting": "[10]", "value": "prolong"},
      {"measurement": "survival time after injection of venom", "setting": "[10]", "value": "increase"}
    ]},
    {"smiles": "CCOC(=O)c1ccc(N)cc1", "note": "[benzocaine]", "values": [
      {"measurement": "platelet aggregation induced by ADP", "setting": "platelet aggregation", "value": "inhibit"}
    ]},
    {"smiles": "CNC[C@H](O)c1ccc(O)c(O)c1", "note": "[epinephrine]", "values": [
      {"measurement": "clinical evidence of toxicity", "setting": "[9]; 14 subjects, 41 procedures", "value": "no clinical evidence"},
      {"measurement": "episodes of tachycardia", "setting": "[9]; 41 studies, most patients received oral clonidine 0.1 mg", "value": "no episodes"},
      {"measurement": "mean difference in heart rate before infiltration and after liposuction", "setting": "[9]; [11]", "value": "+5"},
      {"measurement": "range of difference in heart rate before infiltration and after liposuction", "setting": "[9]; [11]", "value": "−12 to +33"},
      {"measurement": "mean difference in heart rate before and after infiltration", "setting": "[9]; [12]", "value": "−3.4"},
      {"measurement": "range of difference in heart rate before and after infiltration", "setting": "[9]; [12]", "value": "−24 to +17"}
    ]}
  ]
}
